Data: patent EP4043466B1, “PRC2 INHIBITORS” (Mirati Therapeutics, Inc., priority 2018, dated 2019)
pIC50: −log10 of the molar value.

molecular target: purified human, His-tagged PRC2 complex (Homo sapiens, UniProt O75530+Q15910); test: Hot Spot HMT assay: inhibition of PRC2 enzymatic activity (transfer of tritiated methyl from SAM to core histone, filter binding); type: biochemical; settings: Inhibition of PRC2-mediated enzymatic activity; 10 nM PRC2 complex, 0.05 mg/ml core histone H3, 1 uM 3H-SAM, 1 hr at 30°C
Description: The assay uses purified human, His-tagged PRC2 complex, including N-terminal His-tagged EZH2 enzyme, N-terminal Flag-tagged embryonic ectoderm development protein (EED), N-terminal His-tagged suppressor of zeste 12 (SUZ12), N-terminal His-tagged AEBP2, and N-terminal His-tagged RbAp48. In this assay, the transfer of the tritiated methyl group from radiolabeled S-adenosyl methionine (SAM) to purified core histone protein by EZH2 is quantitated after filtration to determine the activity of the core PRC2 complex in the presence and absence of compound.
The initial starting concentration for the serial dilutions of each compound was 1.0 µM. […] SAH (S-(5-adenosyl)-L-homocysteine) was used as a positive control for assay validation.
An aliquot of each serial dilution of test compound was added to deep 384 well plate using Acoustic Technology instrument (Echo 550, LabCyte) containing reaction buffer (50 mM Tris-HCl (pH 8.)), 0.01% Brij35, 1 mM EDTA, 1 mM DTT, 1 mM PMSF and 1% DMSO), 10 nM purified PRC2 complex and 0.05 mg/ml core histone H3 in a 5 µl volume. The reaction was mixed gently and then pre-incubated for 20 min at 30°C. The enzymatic reaction was initiated by adding 1 uM S-Adenosyl-L-[methyl - ^3H]methionine and incubated for 1 hr at 30°C. After 1 hr, the reaction product was detected using a filter binding method and the amount of tritiated H3 core histone was quantitated using a scintillation counter.

Chain of purified human, His-tagged PRC2 complex (Q15910 whole entry): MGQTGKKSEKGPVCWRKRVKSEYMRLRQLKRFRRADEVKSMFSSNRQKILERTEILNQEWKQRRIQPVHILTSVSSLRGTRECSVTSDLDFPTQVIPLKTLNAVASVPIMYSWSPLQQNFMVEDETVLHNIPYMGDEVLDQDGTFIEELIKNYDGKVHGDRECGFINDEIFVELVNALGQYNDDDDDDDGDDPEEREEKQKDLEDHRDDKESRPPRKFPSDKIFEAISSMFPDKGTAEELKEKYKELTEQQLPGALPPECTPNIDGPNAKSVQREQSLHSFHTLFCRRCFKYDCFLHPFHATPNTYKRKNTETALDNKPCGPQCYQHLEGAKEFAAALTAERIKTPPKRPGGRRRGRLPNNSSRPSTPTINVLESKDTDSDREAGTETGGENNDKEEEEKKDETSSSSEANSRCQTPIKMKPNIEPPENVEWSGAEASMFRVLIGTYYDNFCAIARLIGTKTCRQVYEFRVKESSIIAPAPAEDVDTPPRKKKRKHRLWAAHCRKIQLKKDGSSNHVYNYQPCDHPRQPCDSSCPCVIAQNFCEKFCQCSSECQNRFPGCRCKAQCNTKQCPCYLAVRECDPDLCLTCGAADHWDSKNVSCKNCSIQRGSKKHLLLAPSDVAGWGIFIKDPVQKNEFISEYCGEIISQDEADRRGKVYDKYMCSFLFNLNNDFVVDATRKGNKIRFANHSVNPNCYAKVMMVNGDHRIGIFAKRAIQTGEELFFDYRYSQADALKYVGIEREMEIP
Chain of purified human, His-tagged PRC2 complex (O75530 whole entry): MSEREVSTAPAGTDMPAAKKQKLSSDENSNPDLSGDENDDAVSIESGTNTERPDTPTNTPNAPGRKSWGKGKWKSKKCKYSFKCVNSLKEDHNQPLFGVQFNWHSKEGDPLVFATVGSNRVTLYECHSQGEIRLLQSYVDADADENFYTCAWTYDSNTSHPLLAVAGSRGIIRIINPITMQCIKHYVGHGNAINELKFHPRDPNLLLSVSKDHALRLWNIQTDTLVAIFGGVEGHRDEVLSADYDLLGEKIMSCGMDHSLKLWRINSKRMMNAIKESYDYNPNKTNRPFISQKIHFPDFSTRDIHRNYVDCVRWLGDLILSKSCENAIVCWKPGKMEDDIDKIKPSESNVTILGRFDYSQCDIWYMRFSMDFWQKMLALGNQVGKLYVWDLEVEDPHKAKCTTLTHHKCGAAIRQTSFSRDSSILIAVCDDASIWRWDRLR
Chain of purified human, His-tagged PRC2 complex (Q15022 whole entry partner): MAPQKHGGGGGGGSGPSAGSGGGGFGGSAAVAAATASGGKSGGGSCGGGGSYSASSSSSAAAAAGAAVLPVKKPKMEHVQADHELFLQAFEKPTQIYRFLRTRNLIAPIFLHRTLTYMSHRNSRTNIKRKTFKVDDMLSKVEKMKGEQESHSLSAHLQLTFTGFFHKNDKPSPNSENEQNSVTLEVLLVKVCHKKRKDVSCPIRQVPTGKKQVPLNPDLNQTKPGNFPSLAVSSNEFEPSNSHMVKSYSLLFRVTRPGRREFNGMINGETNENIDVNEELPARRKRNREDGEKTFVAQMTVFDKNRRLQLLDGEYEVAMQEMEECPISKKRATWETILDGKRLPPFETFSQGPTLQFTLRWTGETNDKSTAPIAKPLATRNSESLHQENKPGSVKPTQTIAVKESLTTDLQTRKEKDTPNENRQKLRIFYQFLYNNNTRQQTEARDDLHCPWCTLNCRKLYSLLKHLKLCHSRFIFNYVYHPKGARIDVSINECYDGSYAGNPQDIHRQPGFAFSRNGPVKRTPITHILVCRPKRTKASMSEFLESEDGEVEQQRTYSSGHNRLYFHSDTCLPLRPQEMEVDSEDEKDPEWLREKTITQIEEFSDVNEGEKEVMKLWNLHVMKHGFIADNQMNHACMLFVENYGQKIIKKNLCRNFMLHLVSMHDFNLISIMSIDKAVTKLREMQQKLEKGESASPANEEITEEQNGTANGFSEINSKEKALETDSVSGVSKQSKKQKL
Chain of purified human, His-tagged PRC2 complex (Q6ZN18 whole entry partner): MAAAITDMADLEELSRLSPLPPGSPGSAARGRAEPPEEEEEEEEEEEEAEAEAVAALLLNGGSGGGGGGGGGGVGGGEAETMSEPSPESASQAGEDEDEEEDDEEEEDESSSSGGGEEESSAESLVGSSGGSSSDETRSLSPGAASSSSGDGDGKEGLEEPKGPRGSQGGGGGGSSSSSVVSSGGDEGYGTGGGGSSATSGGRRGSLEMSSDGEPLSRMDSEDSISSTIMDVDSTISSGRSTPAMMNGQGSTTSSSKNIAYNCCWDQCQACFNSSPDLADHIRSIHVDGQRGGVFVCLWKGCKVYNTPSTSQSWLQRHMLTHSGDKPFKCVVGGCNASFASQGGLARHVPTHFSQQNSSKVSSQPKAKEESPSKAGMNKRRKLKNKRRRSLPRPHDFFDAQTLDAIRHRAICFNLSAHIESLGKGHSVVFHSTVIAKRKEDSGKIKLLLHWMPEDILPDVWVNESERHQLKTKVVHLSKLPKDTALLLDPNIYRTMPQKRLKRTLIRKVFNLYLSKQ
Chain of purified human, His-tagged PRC2 complex (Q09028 whole entry partner): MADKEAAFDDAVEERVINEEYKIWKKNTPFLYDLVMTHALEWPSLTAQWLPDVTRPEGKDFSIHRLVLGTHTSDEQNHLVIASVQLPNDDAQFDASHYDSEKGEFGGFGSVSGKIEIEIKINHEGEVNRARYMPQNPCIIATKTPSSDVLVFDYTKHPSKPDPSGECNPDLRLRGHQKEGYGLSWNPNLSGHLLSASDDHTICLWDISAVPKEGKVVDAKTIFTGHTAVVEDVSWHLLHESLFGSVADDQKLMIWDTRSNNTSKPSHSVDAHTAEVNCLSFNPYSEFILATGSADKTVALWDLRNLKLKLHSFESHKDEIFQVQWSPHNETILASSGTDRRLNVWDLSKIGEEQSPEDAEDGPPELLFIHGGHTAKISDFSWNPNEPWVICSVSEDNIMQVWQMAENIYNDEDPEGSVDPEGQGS

**Q.** How did the pIC50 turn out when `COc1cc(-c2cnc(NCc3c(F)ccc4c3CCO4)n3cc(C#N)nc23)c(OC)cn1` [Example 125, 8-(2,5-dimethoxypyridin-4-yl)-5-(((5-fluoro-2,3-dihydrobenzofuran-4-yl)methyl)amino)imidazo[1,2-c]pyrimidine-2-carbonitrile] was run?
**A.** > 7.00

**Q.** `N#Cc1cn2c(NCc3c(F)ccc4c3CCO4)ncc(-c3ccc(C(F)(F)F)nc3)c2n1` [Example 126, 5-(((5-fluoro-2,3-dihydrobenzofuran-4-yl)methyl)amino)-8-(6-(trifluoromethyl)pyridin-3-yl)imidazo[1,2-c]pyrimidine-2-carbonitrile] was tested. Which pIC50 did it give?
**A.** 6.30 to 7.00

**Q.** How did the pIC50 turn out when `Cc1cc(-c2cnc(NCc3cccc4c3CCO4)n3cc(C#N)nc23)n(C)n1` [Example 30, 5-(((2,3-dihydrobenzofuran-4-yl)methyl)amino)-8-(1,3-dimethyl-1H-pyrazol-5-yl)imidazo[1,2-c]pyrimidine-2-carbonitrile] was run?
**A.** 6.30 to 7.00

**Q.** `N#Cc1cn2c(NCc3c(F)ccc4c3CCO4)ncc(-c3n[nH]cc3Br)c2n1` [Example 232, 8-(4-bromo-1H-pyrazol-3-yl)-5-(((5-fluoro-2,3-dihydrobenzofuran-4-yl)methyl)amino)imidazo[1,2-c]pyrimidine-2-carbonitrile] was tested. Which pIC50 did it give?
**A.** 6.30 to 7.00

**Q.** How did the pIC50 turn out when `N#Cc1cn2c(NCc3c(F)ccc4c3CCO4)ncc(-c3ccc(C4COCCN4)cc3)c2n1` (stereo not shown) [Example 225, 5-(((5-fluoro-2,3-dihydrobenzofuran-4-yl)methyl)amino)-8-(4-(morpholin-3-yl)phenyl)imidazo[1,2-c]pyrimidine-2-carbonitrile] was run?
**A.** > 7.00

**Q.** With `COc1cc(C)c(-c2cnc(NCc3c(F)ccc4c3CCO4)n3cc(C(=O)O)nc23)cn1` [Example 6, 5-(((5-fluoro-2,3-dihydrobenzofuran-4-yl)methyl)amino)-8-(6-methoxy-4-methylpyridin-3-yl)imidazo[1,2-c]pyrimidine-2-carboxylic acid] as the molecule, how does the pIC50 read?
**A.** 6.30 to 7.00

**Q.** With `CC(=O)Nc1cc(-c2cnc(NCc3c(F)ccc4c3CCO4)n3cc(C#N)nc23)ccn1` [Example 131, N-(4-(2-cyano-5-(((5-fluoro-2,3-dihydrobenzofuran-4-yl)methyl)amino)imidazo[1,2-c]pyrimidin-8-yl)pyridin-2-yl)acetamide] as the molecule, how does the pIC50 read?
**A.** > 7.00

**Q.** How did the pIC50 turn out when `CN1CCC1c1ccc(-c2cnc(NCc3c(F)ccc4c3CCO4)n3cc(C#N)nc23)cc1` (stereo not shown) [Example 221, 5-(((5-fluoro-2,3-dihydrobenzofuran-4-yl)methyl)amino)-8-(4-(1-methylazetidin-2-yl)phenyl)imidazo[1,2-c]pyrimidine-2-carbonitrile] was run?
**A.** > 7.00

**Q.** With `Cc1cc(-c2cnc(NCc3cccc4c3CCO4)n3cc(C(=O)O)nc23)n(C)n1` [Example 10, 5-(((2,3-dihydrobenzofuran-4-yl)methyl)amino)-8-(1,3-dimethyl-1H-pyrazol-5-yl)imidazo[1,2-c]pyrimidine-2-carboxylic acid] as the molecule, how does the pIC50 read?
**A.** > 7.00

**Q.** How did the pIC50 turn out when `N#Cc1cn2c(NCc3c(F)ccc4c3CCO4)ncc(-c3cnn(Cc4cccnc4)c3)c2n1` [Example 101, 5-(((5-fluoro-2,3-dihydrobenzofuran-4-yl)methyl)amino)-8-(1-(pyridin-3-ylmethyl)-1H-pyrazol-4-yl)imidazo[1,2-c]pyrimidine-2-carbonitrile] was run?
**A.** 6.30 to 7.00

**Q.** `Cc1cc(-c2cnc(NCc3c(F)ccc4occc34)n3cc(C(N)=O)nc23)n(C)n1` [Example 18, 8-(1,3-dimethyl-1H-pyrazol-5-yl)-5-(((5-fluorobenzofuran-4-yl)methyl)amino)imidazo[1,2-c]pyrimidine-2-carboxamide] was tested. Which pIC50 did it give?
**A.** > 7.00

**Q.** `CN(C)Cc1ncc(-c2cnc(NCc3c(F)ccc4c3CCO4)n3cc(C#N)nc23)cn1` [Example 216, 8-(2-((dimethylamino)methyl)pyrimidin-5-yl)-5-(((5-fluoro-2,3-dihydrobenzofuran-4-yl)methyl)amino)imidazo[1,2-c]pyrimidine-2-carbonitrile] was tested. Which pIC50 did it give?
**A.** > 7.00

**Q.** `N#Cc1cn2c(NCc3c(F)ccc4c3CCO4)ncc(-c3cnn(C4CCOCC4)c3)c2n1` [Example 120, 5-(((5-fluoro-2,3-dihydrobenzofuran-4-yl)methyl)amino)-8-(1-(tetrahydro-2H-pyran-4-yl)-1H-pyrazol-4-yl)imidazo[1,2-c]pyrimidine-2-carbonitrile] was tested. Which pIC50 did it give?
**A.** < 6.30

**Q.** `Cc1nn(C(C)C)c(C)c1-c1cnc(NCc2c(F)ccc3c2CCO3)n2cc(C#N)nc12` [Example 92, 5-(((5-fluoro-2,3-dihydrobenzofuran-4-yl)methyl)amino)-8-(1-isopropyl-3,5-dlmethyl-1H-pyrazol-4-yl)imidazo[1,2-c]pyrimidine-2-carbonitrile] was tested. Which pIC50 did it give?
**A.** 6.30 to 7.00

**Q.** How did the pIC50 turn out when `N#Cc1cncc(-c2cnc(NCc3c(F)ccc4c3CCO4)n3cc(C#N)nc23)c1` [Example 95, 8-(5-cyanopyridin-3-yl)-5-(((5-fluoro-2,3-dihydrobenzofuran-4-yl)methyl)amino)imidazo[1,2-c]pyrimidine-2-carbonitrile] was run?
**A.** > 7.00

**Q.** With `COc1cc(C)c(-c2cnc(NCc3c(F)ccc4c3CCO4)n3cc(C#N)nc23)cn1` [Example 24, 5-(((5-fluoro-2,3-dihydrobenzofuran-4-yl)methyl)amino)-8-(6-methoxy-4-methylpyridin-3-yl)imidazo[1,2-c]pyrimidine-2-carbonitrile] as the molecule, how does the pIC50 read?
**A.** 6.30 to 7.00

**Q.** `Cc1c(-c2cnc(NCc3c(F)ccc4c3CCO4)n3cc(C(=O)O)nc23)cnn1C(C)C` [Example 8, 5-(((5-fluoro-2,3-dihydrobenzofuran-4-yl)methyl)amino)-8-(1-isopropyl-5-methyl-1H-pyrazol-4-yl)imidazo[1,2-c]pyrimidine-2-carboxylic acid] was tested. Which pIC50 did it give?
**A.** > 7.00

**Q.** With `Cc1ncccc1-c1cnc(NCc2c(F)ccc3occc23)n2cc(C#N)nc12` [Example 22, 5-(((5-fluorobenzofuran-4-yl)methyl)amino)-8-(2-methylpyridin-3-yl)imidazo[1,2-c]pyrimidine-2-carbonitrile] as the molecule, how does the pIC50 read?
**A.** 6.30 to 7.00

**Q.** With `Cc1nn(C(C)C)cc1-c1cnc(NCc2c(F)ccc3c2CCO3)n2cc(C#N)nc12` [Example 23, 5-(((5-fluoro-2,3-dihydrobenzofuran-4-yl)methyl)amino)-8-(1-isopropyl-3-methyl-1H-pyrazol-4-yl)imidazo[1,2-c]pyrimidine-2-carbonitrile] as the molecule, how does the pIC50 read?
**A.** 6.30 to 7.00

**Q.** With `N#Cc1cn2c(NCc3c(F)ccc4c3CCO4)ncc(-c3ccc(CN4CCC(O)C4)cc3)c2n1` (stereo not shown) [Example 151, 5-(((5-fluoro-2,3-dihydrobenzofuran-4-yl)methyl)amino)-8-(4-((3-hydroxypyrrolidin-1-yl)methyl)phenyl)imidazo[1,2-c]pyrimidine-2-carbonitrile] as the molecule, how does the pIC50 read?
**A.** > 7.00

**Q.** With `N#Cc1cn2c(NCc3c(F)ccc4c3CCO4)ncc(-c3cnc(N)c(C(F)(F)F)c3)c2n1` [Example 134, 8-(6-amino-5-(trifluoromethyl)pyridin-3-yl)-5-(((5-fluoro-2,3-dihydrobenzofuran-4-yl)methyl)amino)imidazo[1,2-c]pyrimidine-2-carbonitrile] as the molecule, how does the pIC50 read?
**A.** 6.30 to 7.00

**Q.** With `Cc1nc(C2CC2)ncc1-c1cnc(NCc2c(F)ccc3c2CCO3)n2cc(C(N)=O)nc12` [Example 15, 8-(2-cyclopropyl-4-methylpyrimidin-5-yl)-5-(((5-fluoro-2,3-dihydrobenzofuran-4-yl)methyl)amino)imidazo[1,2-c]pyrimidine-2-carboxamide] as the molecule, how does the pIC50 read?
**A.** 6.30 to 7.00

**Q.** `Cc1cn(-c2cnc(NCc3c(F)ccc4c3CCO4)n3cc(C(=O)O)nc23)cn1` [Example 4, 5-(((5-fluoro-2,3-dihydrobenzofuran-4-yl)methyl)amino)-8-(4-methyl-1H-imidazol-1-yl)imidazo[1,2-c]pyrimidine-2-carboxylic acid] was tested. Which pIC50 did it give?
**A.** > 7.00

**Q.** With “5-(((5-fluoro-2,3-dihydrobenzofuran-4-yl)methyl)amino)-8-(4-methyl-1H-imidazol-1-yl)imidazo[1,2-c]pyrimidine-2-carboxamide [Example 17]” as the molecule, how does the pIC50 read?
**A.** 6.30 to 7.00

**Q.** `Cc1n[nH]c(C)c1-c1cnc(NCc2c(F)ccc3c2CCO3)n2cc(C#N)nc12` [Example 104, 8-(3,5-dimethyl-1H-pyrazol-4-yl)-5-(((5-fluoro-2,3-dihydrobenzofuran-4-yl)methyl)amino)imidazo[1,2-c]pyrimidine-2-carbonitrile] was tested. Which pIC50 did it give?
**A.** < 6.30

**Q.** `COc1cc(Cl)c(-c2cnc(NCc3c(F)ccc4c3CCO4)n3cc(C#N)nc23)cn1` [Example 91, 8-(4-chloro-6-methoxypyridin-3-yl)-5-(((5-fluoro-2,3-dihydrobenzofuran-4-yl)methyl)amino)imidazo[1,2-c]pyrimidine-2-carbonitrile] was tested. Which pIC50 did it give?
**A.** 6.30 to 7.00

**Q.** `CN(C)C(=O)c1ccc(-c2cnc(NCc3c(F)ccc4c3CCO4)n3cc(C#N)nc23)c(Cl)c1F` [Example 34, 3-chloro-4-(2-cyano-5-(((5-fluoro-2,3-dlhydrobenzofuran-4-yl)methyl)amino)imidazo[1,2-c]pyrimidin-8-yl)-2-fluoro-N,N-dimethylbenzamide] was tested. Which pIC50 did it give?
**A.** > 7.00

**Q.** How did the pIC50 turn out when `N#Cc1cn2c(NCc3c(F)ccc4c3CCO4)ncc(-c3cnn(C4CCOC4)c3)c2n1` (stereo not shown) [Example 107, 5-(((5-fluoro-2,3-dihydrobenzofuran-4-yl)methyl)amino)-8-(1-(tetrahydrofuran-3-yl)-1H-pyrazol-4-yl)imidazo[1,2-c]pyrimidine-2-carbonitrile] was run?
**A.** 6.30 to 7.00
